{
  "source": "patent US10209236B2",
  "about": "“Cell analyzer system, cell analyzer program, and cell analyzing method” (Sony Corporation, priority 2012, dated 2019)",
  "assay_type_in_all_cases": "cell-based",
  "key": {"[1]": {"tested_on": "neural cells derived from iPS cells where a sufficient neural cell network was formed", "assay": "Evaluation of cytotoxicity by motion vibration", "conditions": "whole image as extraction range; 5 μm of memantine with 500 nM or 5000 nM of Aβ peptide; incubated for five days; FIG. 28", "experimental": "Effects of a cytotoxic substance administered on the neuron cells were evaluated using the motion vibration of the cells. As a cytotoxic model, the cytotoxicity of Aβ peptide considered as a cause of the Alzheimer disease and a neuroprotective action of an anti-alzheimer's disease drug, i.e., memantine were evaluated. As the cytotoxicity of Aβ peptide, there are a synapse failure by acting on synapses and a cell failure entrained in the cells. The cell group of the neural cells derived from iPS cells where a sufficient neural cell network was formed was prepared. A predetermined amount of Aβ peptide or Aβ peptide and memantine was administered to each cell group to incubate for five days. After five days, the cell image of each cell group was captured to extract the motion vibration from the whole image and each cell as the extraction range and the vibration characteristics were calculated. FIGS. 27(a) to (f) are graphs of the vibration characteristics of the motion vibration extracted from the extraction range including the whole image. […] FIG. 28 is a graph of average values of the vibration power extracted from the motion vibration in each cell group shown in FIGS. 27(a) to (e) in each pixel included in the extraction range. […] On the other hand, when memantine was administered, the vibration power is not decreased. […]"}, "[2]": {"tested_on": "neuron cells (iPS Academia Japan) that were differentiation of iPS cells", "assay": "Motion vibration of neuron cells, FFT power spectra", "conditions": "for spontaneous membrane potential vibration of the neural cells: confirmed by the vibration characteristics of the motion vibration", "experimental": "Effects of GABA and L-Glu administered on the neuron cells were evaluated. The GABA or the L-Glu was administered to incubation liquid of the neuron cells (iPS Academia Japan) that were differentiation of iPS cells. Each neuron cell was image-captured at 2 flame/sec for 1 minute to provide each cell image.\nIn each cell image, the motion vibration was extracted using the image range including one neuron cell as the extraction range. FIG. 23(a) is a graph of the motion vibration extracted from the cell image of the neural cells to which the GABA is administrated. FIG. 23(b) is a graph of the motion vibration extracted from the cell image of the neural cells to which the L-Glu is administrated.\nThen, the FFT analysis was applied to the motion vibration to calculate power spectra. FIG. 24(a) is a graph of power spectrum calculated from the motion vibration (FIG. 23(a)) of the neuron cells to which the GABA is administered. FIG. 24(b) is a graph of power spectrum calculated from the motion vibration (FIG. 23(b)) of the neuron cells to which the L-Glu is administered."}, "[3]": {"tested_on": "neuron cells (iPS Academia Japan) that were differentiation of iPS cells", "assay": "Fluorescence intensity vibration (Ca2+ imaging with Fluo8) of neuron cells, FFT power spectra", "conditions": "for spontaneous membrane potential vibration of the neural cells: confirmed by the vibration characteristics of the fluorescence intensity vibration", "experimental": "Effects of GABA and L-Glu on the neuron cells and the neuron cell network were evaluated using the fluorescence intensity vibration. The GABA is a physiological active substance that gives inhibitory stimulation to the neuron cells. The L-Glu gives exciting stimulation.\nFluo8 (fluorescent labeling) used in Ca^2+ imaging was entrained in the neuron cells (iPS Academia Japan) that were differentiation of iPS cells. The GABA or the L-Glu was administered to incubation liquid. Fluorescence of the Fluo8 generated from each neuron cell was image-captured at 2 flame/sec for 1 minute to provide each cell image.\nThe fluorescence intensity vibration (vibration information) was extracted from each cell image, taking the image range including one neuron cell as the extraction range. FIG. 9(a) is a graph of fluorescence intensity vibration extracted from the cell image of the neuron cells to which the GABA is administered. FIG. 9(b) is a graph of fluorescence intensity vibration extracted from the cell image of the neuron cells to which the L-Glu is administered.\nThen, the FFT analysis was applied to fluorescence intensity vibration to calculate power spectra (vibration characteristics). FIG. 10(a) is a graph of power spectrum calculated from the fluorescence intensity vibration ([…]) of the neuron cells to which the GABA is administered. FIG. 10(b) is a graph of power spectrum calculated from the fluorescence intensity vibration ([…]) of the neuron cells to which the L-Glu is administered."}, "[4]": {"conditions": "extraction range including one neuron cell, compared with neuron cells to which the L-Glu is administered, FIGS. 24(a) and 24(b)"}, "[5]": {"conditions": "extraction range including one neuron cell, compared with neuron cells to which the L-Glu is administered, FIGS. 10(a) and 10(b)"}},
  "data": [
    {"smiles": "CC12CC3CC(C)(C1)CC(N)(C3)C2", "note": "[memantine]", "values": [
      {"measurement": "vibration power of the cell group (motion vibration, average values in each pixel)", "setting": "[1]", "result": "not decreased"}
    ]},
    {"smiles": "NCCCC(=O)O", "note": "[GABA]", "values": [
      {"measurement": "spontaneous membrane potential vibration of the neural cells", "setting": "[2]", "result": "changed"},
      {"measurement": "amplitude of the motion vibration", "setting": "[2]; [4]", "result": "greater"},
      {"measurement": "frequency of the motion vibration", "setting": "[2]; [4]", "result": "lower"},
      {"measurement": "spontaneous membrane potential vibration of the neural cells", "setting": "[3]", "result": "changed"},
      {"measurement": "amplitude of the fluorescence intensity vibration", "setting": "[3]; [5]", "result": "greater"},
      {"measurement": "frequency of the fluorescence intensity vibration", "setting": "[3]; [5]", "result": "lower"}
    ]},
    {"smiles": "N[C@@H](CCC(=O)O)C(=O)O", "note": "[L-Glu]", "values": [
      {"measurement": "spontaneous membrane potential vibration of the neural cells", "setting": "[2]", "result": "changed"},
      {"measurement": "spontaneous membrane potential vibration of the neural cells", "setting": "[3]", "result": "changed"}
    ]}
  ]
}
